For orientation: melting point means the temperature of the solid-liquid transition. `COc1ccc(CNc2nc(CCC(=O)O)nc3sc4ccccc4c23)cc1Cl` [Example 2, 3-[4-(3-chloro-4-methoxybenzylamino)benzothieno[2,3-d]pyrimidin-2-yl]propionic acid]: the melting point is 218 °C.
`COC(=O)c1ccc(-c2nc(NCc3ccc(OC)c(Cl)c3)c3c(n2)sc2ccccc23)cc1` [Example 3, methyl 4-[4-(3-chloro-4-methoxybenzylamino)-[1]benzothieno[2,3-d]pyrimidin-2-yl]benzoate]: the melting point lay within 203 to 204 °C.
